Results on twelve compounds are retold here after patent US20240150377A1, “MODULATORS OF CYSTIC FIBROSIS TRANSMEMBRANE CONDUCTANCE REGULATOR” (VERTEX PHARMACEUTICALS INCORPORATED, priority 2020, published 2024).

Where two headings read alike, the source gives them in different places.

For data set [1] the following is noted: amide bond, 13-membered ring, DMF.
Another data set concerns the target T1, CFTR (Homo sapiens, UniProt P13569, DEL508-508).
T1 construct: endogenous in cells; host or cells: primary human bronchial epithelial cells from CF subjects (F508del/MF-HBE), differentiated at air-liquid interface
The experiment in a line: HBE assay: Ussing chamber assay of CFTR-mediated short-circuit currents. It is filed as cell-based. The note with it: for EC50: read-out: HBE EC50. The gist of the method: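 CFTR-mediated Isc (μA/cm²) equals the peak response to apical 20 μM forskolin minus the residual after a 20 μM each BPO/GlyH-101/CFTR inhibitor 172 cocktail, recorded in Ussing chambers at Vhold 0 mV, 37 °C, pH 7.4, with 30 μM apical amiloride. Cells were F508del/MF HBE cultures preincubated 18-24 h with corrector (concentration range or 10 μM) plus 1 μM ivacaftor in 20% human serum.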

Where [2] appears, read: Table 10, read-out: HBE Max activity (%).
[3] abbreviates: Table 11, read-out: HBE Activity at 10 μM (%).
Where [4] appears, read: Table 11, read-out: HBE Max Activity (%).

T1 sequence (P13569 with tags, fused parts or gaps DEL508-508): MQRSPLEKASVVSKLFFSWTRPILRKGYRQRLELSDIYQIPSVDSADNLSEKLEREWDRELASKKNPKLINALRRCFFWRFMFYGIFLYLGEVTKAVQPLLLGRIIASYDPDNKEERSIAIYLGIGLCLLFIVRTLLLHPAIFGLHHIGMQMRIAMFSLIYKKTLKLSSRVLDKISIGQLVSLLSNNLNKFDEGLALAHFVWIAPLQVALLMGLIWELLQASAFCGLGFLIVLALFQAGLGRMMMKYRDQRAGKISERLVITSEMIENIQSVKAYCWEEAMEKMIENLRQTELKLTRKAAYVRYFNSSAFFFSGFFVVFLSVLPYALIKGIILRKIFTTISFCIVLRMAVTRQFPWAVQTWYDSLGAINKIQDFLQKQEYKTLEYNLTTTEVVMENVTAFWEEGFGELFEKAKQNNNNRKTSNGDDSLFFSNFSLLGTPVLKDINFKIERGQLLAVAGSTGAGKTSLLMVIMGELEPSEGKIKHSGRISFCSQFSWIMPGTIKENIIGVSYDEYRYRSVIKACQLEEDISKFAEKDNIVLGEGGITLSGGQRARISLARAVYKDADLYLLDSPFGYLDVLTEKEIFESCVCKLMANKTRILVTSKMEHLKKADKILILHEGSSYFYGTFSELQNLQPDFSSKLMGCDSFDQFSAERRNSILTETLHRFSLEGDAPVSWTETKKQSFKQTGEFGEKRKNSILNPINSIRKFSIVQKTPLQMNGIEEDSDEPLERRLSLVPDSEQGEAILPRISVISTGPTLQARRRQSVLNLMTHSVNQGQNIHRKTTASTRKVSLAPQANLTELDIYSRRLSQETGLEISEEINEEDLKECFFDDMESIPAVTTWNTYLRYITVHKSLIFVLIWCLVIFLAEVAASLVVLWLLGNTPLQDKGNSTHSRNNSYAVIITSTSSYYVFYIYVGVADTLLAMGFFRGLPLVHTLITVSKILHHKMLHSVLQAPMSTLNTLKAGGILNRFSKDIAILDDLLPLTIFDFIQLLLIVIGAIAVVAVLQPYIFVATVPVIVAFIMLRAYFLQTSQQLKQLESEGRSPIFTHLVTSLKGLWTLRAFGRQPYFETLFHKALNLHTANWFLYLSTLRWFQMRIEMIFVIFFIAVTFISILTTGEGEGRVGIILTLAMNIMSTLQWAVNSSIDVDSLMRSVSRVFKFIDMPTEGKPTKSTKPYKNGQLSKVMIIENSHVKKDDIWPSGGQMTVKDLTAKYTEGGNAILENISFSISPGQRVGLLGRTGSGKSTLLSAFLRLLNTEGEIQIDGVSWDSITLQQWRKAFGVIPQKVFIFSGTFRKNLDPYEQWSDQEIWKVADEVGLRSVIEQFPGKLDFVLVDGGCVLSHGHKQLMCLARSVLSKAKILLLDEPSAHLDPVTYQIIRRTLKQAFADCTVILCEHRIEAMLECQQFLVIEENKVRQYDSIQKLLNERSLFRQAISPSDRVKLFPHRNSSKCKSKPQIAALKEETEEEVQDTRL

For `COCCN(C)c1cnc(CN2C(=O)c3cccc(c3)S(=O)(=O)Nc3nc(cc(-c4c(C)cccc4C)n3)OC[C@H]2CC(C)(C)C)nc1` [Compound 114, (11R)-6-(2,6-Dimethylphenyl)-11-(2,2-dimethylpropyl)-12-[[5-[2-methoxyethyl(methyl)amino]pyrimidin-2-yl]methyl]-2,2-dioxo-9-oxa-2λ^6-thia-3,5,12,19-tetrazatricyclo[12.3.1.14,8]nonadeca-1(18),4(19),5,7,14,16-hexaen-13-one], the ring closure, yield after HPLC in data set [1] (from 3-[[4-(2,6-dimethylphenyl)-6-[(2R)-2-[[5-[2-methoxyethyl(methyl)amino]pyrimidin-2-yl]methylamino]-4,4-dimethyl-pentoxy]pyrimidin-2-yl]sulfamoyl]benzoic acid (Dihydrochloride salt), HATU/DIEA, 10.5 mM, 25.0 °C) is 53%. On CFTR (Table 10), the EC50 was less than 1000 nM. Also, at CFTR (setting [2]), the Emax is more than 60%.
Turning to `Cc1cc(N2CCOCC2)cnc1CN1C(=O)c2cccc(c2)S(=O)(=O)Nc2nc(cc(-c3c(C)cccc3C)n2)OC[C@H]1CC(C)(C)C` [Compound 57, (11R)-6-(2,6-Dimethylphenyl)-11-(2,2-dimethylpropyl)-12-[(3-methyl-5-morpholino-2-pyridyl)methyl]-2,2-dioxo-9-oxa-2λ^6-thia-3,5,12,19-tetrazatricyclo[12.3.1.14,8]nonadeca-1(18),4(19),5,7,14,16-hexaen-13-one], the ring closure, yield after HPLC in data set [1] (from Cc1cc(N2CCOCC2)cnc1CN[C@@H](COc1cc(-c2c(C)cccc2C)nc(NS(=O)(=O)c2cccc(C(=O)O)c2)n1)CC(C)(C)C, CDMT/NMM, 25.0 °C, 3.5 h, 2 steps) worked out at 19%. For the same compound, the EC50 on CFTR (Table 10) was less than 1000 nM. Further, on CFTR (setting [2]), the Emax is more than 60%.
With `Cc1cccc(C)c1-c1cc2nc(n1)NS(=O)(=O)c1cccc(c1)C(=O)N(Cc1ncc(NCC(C)(C)C)cn1)[C@H](CC(C)(C)C)CO2` [Compound 116, (11R)-6-(2,6-Dimethylphenyl)-11-(2,2-dimethylpropyl)-12-[[5-(2,2-dimethylpropylamino)pyrimidin-2-yl]methyl]-2,2-dioxo-9-oxa-2λ^6-thia-3,5,12,19-tetrazatricyclo[12.3.1.14,8]nonadeca-1(18),4(19),5,7,14,16-hexaen-13-one], in data set [1] (from 3-[[4-(2,6-dimethylphenyl)-6-[(2R)-2-[[5-(2,2-dimethylpropylamino)pyrimidin-2-yl]methylamino]-4,4-dimethyl-pentoxy]pyrimidin-2-yl]sulfamoyl]benzoic acid (Dihydrochloride salt), HATU/DIEA, 23.6 mM, 25.0 °C), the ring closure, yield after HPLC is 15%. The activation at 10 µM at CFTR (setting [3]) is more than 60%. Moreover, the EC50 on CFTR (Table 11) is less than 1000 nM. Besides, the Emax on CFTR (setting [4]) is more than 60%.
Take `Cc1cccc(C)c1-c1cc2nc(n1)NS(=O)(=O)c1cccc(c1)C(=O)N(Cc1ncc(N3CCC(C)(C)C3)cn1)[C@H](CC(C)(C)C)CO2` [Compound 119, (11R)-6-(2,6-Dimethylphenyl)-11-(2,2-dimethylpropyl)-12-[[5-(3,3-dimethylpyrrolidin-1-yl)pyrimidin-2-yl]methyl]-2,2-dioxo-9-oxa-2λ^6-thia-3,5,12,19-tetrazatricyclo[12.3.1.14,8]nonadeca-1(18),4(19),5,7,14,16-hexaen-13-one]: in data set [1] (from 3-[[4-(2,6-dimethylphenyl)-6-[(2R)-2-[[5-(3,3-dimethylpyrrolidin-1-yl)pyrimidin-2-yl]methylamino]-4,4-dimethyl-pentoxy]pyrimidin-2-yl]sulfamoyl]benzoic acid (Dihydrochloride salt), CDMT/NMM, 29.4 mM), the ring closure, yield after HPLC was determined as 47%. Also, the EC50 at CFTR (Table 11) is 1000 to 3000 nM. Also, on CFTR (setting [4]), the Emax was more than 60%.
As for `Cc1cccc(C)c1-c1cc2nc(n1)NS(=O)(=O)c1cccc(c1)C(=O)N(Cc1cc(C(C)(C)C)[nH]n1)[C@H](CC(C)(C)C)CO2` [Compound 134, (11R)-12-[(5-tert-Butyl-1H-pyrazol-3-yl)methyl]-6-(2,6-dimethylphenyl)-11-(2,2-dimethylpropyl)-2,2-dioxo-9-oxa-2λ^6-thia-3,5,12,19-tetrazatricyclo[12.3.1.14,8]nonadeca-1(18),4(19),5,7,14,16-hexaen-13-one], the ring closure, yield after HPLC in data set [1] (from Cc1cccc(C)c1-c1cc(OC[C@@H](CC(C)(C)C)NCc2cc(C(C)(C)C)[nH]n2)nc(NS(=O)(=O)c2cccc(C(=O)O)c2)n1, CDMT/NMM, 3.0 h, 2 steps) worked out at 20%. At CFTR (Table 10), the EC50 is less than 1000 nM. The Emax on CFTR (setting [2]) was more than 60%.
Turning to `Cc1cccc(C)c1-c1cc2nc(n1)NS(=O)(=O)c1cccc(c1)C(=O)N(Cc1ccc(N3CCOCC3)nn1)[C@H](CC(C)(C)C)CO2` [Compound 111, (11R)-6-(2,6-Dimethylphenyl)-11-(2,2-dimethylpropyl)-12-[(6-morpholinopyridazin-3-yl)methyl]-2,2-dioxo-9-oxa-2λ^6-thia-3,5,12,19-tetrazatricyclo[12.3.1.14,8]nonadeca-1(18),4(19),5,7,14,16-hexaen-13-one], the ring closure, yield after HPLC in data set [1] (from Cc1cccc(C)c1-c1cc(OC[C@@H](CC(C)(C)C)NCc2ccc(N3CCOCC3)nn2)nc(NS(=O)(=O)c2cccc(C(=O)O)c2)n1, CDMT/NMM, 25.0 °C, 3.0 h, 2 steps) was 10%. Further, the EC50 at CFTR (Table 10) is less than 1000 nM. Also, at CFTR (setting [2]), the Emax was more than 60%.
As to `Cc1cccc(C)c1-c1cc2nc(n1)NS(=O)(=O)c1cccc(c1)C(=O)N(Cc1nccc(C(F)(F)F)n1)[C@H](CC(C)(C)C)CO2` [Compound 122, (11R)-6-(2,6-Dimethylphenyl)-11-(2,2-dimethylpropyl)-12-{[4-(trifluoromethyl)pyrimidin-2-yl]methyl}-9-oxa-2λ^6-thia-3,5,12,19-tetraazatricyclo[12.3.1.14,8]nonadeca-1(17),4,6,8(19),14(18),15-hexaene-2,2,13-trione], in data set [1] (from Cc1cccc(C)c1-c1cc(OC[C@@H](CC(C)(C)C)NCc2nccc(C(F)(F)F)n2)nc(NS(=O)(=O)c2cccc(C(=O)O)c2)n1, CDMT/NMM, 27.3 mM), the ring closure, yield after HPLC came to 48%. Further, on CFTR (Table 11), the EC50 is less than 1000 nM. For the same compound, the Emax on CFTR (setting [4]) is more than 60%.
Consider `Cc1cccc(C)c1-c1cc2nc(n1)NS(=O)(=O)c1cccc(c1)C(=O)N(Cc1ccc(N3CCOCC3)cn1)[C@H](CC1CC3(CCC3)C1)CO2` [Compound 3, (11R)-6-(2,6-Dimethylphenyl)-12-[(5-morpholino-2-pyridyl)methyl]-2,2-dioxo-11-(spiro[3.3]heptan-2-ylmethyl)-9-oxa-2λ^6-thia-3,5,12,19-tetrazatricyclo[12.3.1.14,8]nonadeca-1(18),4(19),5,7,14,16-hexaen-13-one], for which the ring closure, yield after HPLC in data set [1] (from Cc1cccc(C)c1-c1cc(OC[C@@H](CC2CC3(CCC3)C2)NCc2ccc(N3CCOCC3)cn2)nc(NS(=O)(=O)c2cccc(C(=O)O)c2)n1, CDMT/NMM, 25.0 °C, 2.5 h, 2 steps) was 11%. Also, the EC50 at CFTR (Table 10) was less than 1000 nM. Further, the Emax on CFTR (setting [2]) is more than 60%.
Turning to `Cc1cccc(C)c1-c1cc2nc(n1)NS(=O)(=O)c1cccc(c1)C(=O)N(Cc1cnn3ccccc13)[C@H](CC(C)(C)C)CO2` [Compound 139, (11R)-6-(2,6-Dimethylphenyl)-11-(2,2-dimethylpropyl)-12-({pyrazolo[1,5-a]pyridin-3-yl}methyl)-9-oxa-2λ^6-thia-3,5,12,19-tetraazatricyclo[12.3.1.14,8]nonadeca-1(17),4,6,8(19),14(18),15-hexaene-2,2,13-trione], the ring closure, yield after HPLC in data set [1] (from Cc1cccc(C)c1-c1cc(OC[C@@H](CC(C)(C)C)NCc2cnn3ccccc23)nc(NS(=O)(=O)c2cccc(C(=O)O)c2)n1, HATU/DIEA, 29.4 mM, 4.0 h) worked out at 57%. For the same compound, the activation at 10 µM on CFTR (Table 10, read-out: HBE activity at 10 (μM) (%)) was more than 60%.
In data set [1] (from Cc1cccc(C)c1-c1cc(OC[C@@H](CC(C)(C)C)NC[C@@H]2CN(C(=O)OC(C)(C)C)CCO2)nc(NS(=O)(=O)c2cccc(C(=O)O)c2)n1, CDMT/NMM, 26.4 mM), `Cc1cccc(C)c1-c1cc2nc(n1)NS(=O)(=O)c1cccc(c1)C(=O)N(C[C@@H]1CN(C(=O)OC(C)(C)C)CCO1)[C@H](CC(C)(C)C)CO2` [Compound 141, tert-Butyl (2R)-2-[[(11R)-6-(2,6-dimethylphenyl)-11-(2,2-dimethylpropyl)-2,2,13-trioxo-9-oxa-2λ^6-thia-3,5,12,19-tetrazatricyclo[12.3.1.14,8]nonadeca-1(18),4(19),5,7,14,16-hexaen-12-yl]methyl]morpholine-4-carboxylate] gave a ring closure, yield after HPLC of 69%. The EC50 at CFTR (Table 11) was less than 1000 nM. Also, the Emax at CFTR (setting [4]) was more than 60%.
As for `Cc1cccc(C)c1-c1cc2nc(n1)NS(=O)(=O)c1cccc(c1)C(=O)N(Cc1cn(C)nn1)[C@H](CC(C)(C)C)CO2` [Compound 140, (11R)-6-(2,6-Dimethylphenyl)-11-(2,2-dimethylpropyl)-12-[(1-methyltriazol-4-yl)methyl]-2,2-dioxo-9-oxa-2λ^6-thia-3,5,12,19-tetrazatricyclo[12.3.1.14,8]nonadeca-1(18),4(19),5,7,14,16-hexaen-13-one], in data set [1] (from Cc1cccc(C)c1-c1cc(OC[C@@H](CC(C)(C)C)NCc2cn(C)nn2)nc(NS(=O)(=O)c2cccc(C(=O)O)c2)n1, HATU/DIEA, 29.1 mM, 15.0 h), the ring closure, yield after HPLC is 25%. For the same compound, the activation at 10 µM on CFTR (setting [3]) was more than 60%.
As for `Cc1cccc(C)c1-c1cc2nc(n1)NS(=O)(=O)c1cccc(c1)C(=O)N(Cc1ncc(N(C)CC(C)(C)C)cn1)[C@H](CC(C)(C)C)CO2` [Compound 115, (11R)-6-(2,6-Dimethylphenyl)-11-(2,2-dimethylpropyl)-12-[[5-[2,2-dimethylpropyl(methyl)amino]pyrimidin-2-yl]methyl]-2,2-dioxo-9-oxa-2λ^6-thia-3,5,12,19-tetrazatricyclo[12.3.1.14,8]nonadeca-1(18),4(19),5,7,14,16-hexaen-13-one], the ring closure, yield after HPLC in data set [1] (from 3-[[4-(2,6-dimethylphenyl)-6-[(2R)-2-[[5-[2,2-dimethylpropyl(methyl)amino]pyrimidin-2-yl]methylamino]-4,4-dimethyl-pentoxy]pyrimidin-2-yl]sulfamoyl]benzoic acid (Dihydrochloride salt), HATU/DIEA, 19.3 mM, 25.0 °C) came out at 50%. Further, on CFTR (Table 10), the EC50 was less than 1000 nM. In addition, the Emax at CFTR (setting [2]) was more than 60%.

For orientation: EC50 means the concentration giving half of the maximal effect.
